The record followed here is US11779620B2 (priority 2020, dated 2023).

For assay [1], the system named is human PBMC cultures. Briefly: Induction of CD69 activation marker on immune cell subsets in PBMC cultures (Trametes versicolor study). The note with it: 24 h, positive controls LPS 10 ng/mL, IL-2 100 IU/mL, mean±SD. The format is cell-based.
For assay [2], the system named is human PBMC cultures. Briefly: Cytokine, chemokine and growth factor levels in PBMC culture supernatants (medicinal mushroom blend study). In kind it is cell-based. The note with it: LPS-treated control cultures (10 ng/mL), 24 h, mean±SD. The procedure: The powder was handled in the following manner, using pyrogen-free disposables: A 100 mg/mL suspension was prepared in phosphate-buffered saline (PBS) and allowed to rehydrate and extract aqueous compounds for 1 hour at 20° C. under gentle agitation. The suspension was centrifuged at 400 g for 10 minutes, and the aqueous fraction harvested. Ethanol (95%) was added to the pellet and vortexed, and extraction of non-aqueous, ethanol-soluble compounds allowed for 1 hour at 20° C. under gentle agitation. The suspension was centrifuged at 400 g for 10 minutes, and the ethanol fraction harvested. The remaining solid pellet was resuspended in PBS. The aqueous and ethanol fractions were filtered through a 0.22-micron syringe filter before adding to cell cultures. The solid fraction was passed through homogenization spin columns (QIAshredder, Qiagen, […].), but were not filtered through a 0.22-micron filter. From each fraction, serial dilutions were made in pyrogen-free physiological saline. See also FIG. 9.
Peripheral venous blood was drawn from three healthy human donors upon written informed consent, as approval by the Sky Lakes Medical Center Institutional Review Board, Federalwide Assurance 2603. The blood was drawn into heparin vacutainer vials, and the peripheral blood mononuclear cells (PBMC) isolated using Lympholyte Poly by centrifugation for 35 minutes at 400×g. The PBMC were washed twice in PBS, counted, and the density adjusted to establish cultures with a cell density of 10^6/mL, using Roswell Park Memorial Institute (RPMI) 1640 medium containing penicillin, streptomycin, and fetal bovine serum.
The highly inflammatory lipopolysaccharide (LPS) from Salmonella enterica was used as a positive control for immune-cell activation. Serial dilutions of products or LPS (10 ng/mL) were added to cultures at a volume of 20 μL, and cultures were then incubated at 37° C., 5% CO2 for 24 hours. […] Untreated negative control cultures consisted of PBMC exposed to phosphate-buffered saline in the absence of test products. All treatments, including each dose of test product and each positive and negative control, were tested in triplicate. After 24 hours, cells were transferred to V-bottom microtiter plates, washed in PBS containing bovine serum albumin and sodium azide, and stained for 10 minutes with fluorochrome-labeled anti-CD3, anti-CD56, and anti-CD69 monoclonal antibodies at the recommended concentration. PBMC were then fixed in formalin. The fluorescence intensities for CD3, CD56, and CD69 were measured by flow cytometry, using an Attune acoustic-focusing flow cytometer (Thermo Fisher Scientific, Waltham, Mass., USA). Data analysis utilized gating on forward and side scatter to evaluate CD69 expression on lymphocyte versus monocyte/macrophage subsets. The lymphocyte subpopulation was further analyzed for CD69 expression on CD3−CD56+ NK cells, CD3+CD56+ NKT cells, CD3+CD56− T cells, and non-NK non-T lymphocytes.
After 24 hours of incubation, after transfer to V-bottom microtiter plates and before cells were stained for flow cytometry analysis, the culture supernatants were harvested from the PBMC cultures described above. Levels of cytokines, chemokines, and growth factors were quantified using Bio-Plex protein arrays (Bio-Rad Laboratories Inc., Hercules Calif., USA) and utilizing xMAP technology (Luminex, Austin, Tex., USA).

In the case of lipopolysaccharide [LPS], in the assay on human PBMC cultures [1], the “CD69 percent change compared to untreated control cultures, NK cells” value was determined as 114±10%; the “CD69 percent change compared to untreated control cultures, NKT cells” value came to 54±8.3%; the “CD69 percent change compared to untreated control cultures, T lymphocytes” value is on record as 19±2.1%. In addition, in the assay on human PBMC cultures [2], the G-CSF level was 1,458±58 pg/mL, the IFN-γ level amounted to 71 ± 2 pg/mL, the IL-1ra level is recorded as 8,134±473 pg/mL and the IL-1β level is 772 ± 28 pg/mL. In the assay with human PBMC cultures [2], the IL-10 level was 301 ± 15 pg/mL, the MCP-1 level is 2,052±35 pg/mL, the MIP-1α level is recorded as 2,116±0 pg/mL and the MIP-1β level was 6,497±814 pg/mL. In addition, in the assay on human PBMC cultures [2], the TNF-α level is recorded as 7,073±185 pg/mL, the VEGF level was 421 ± 17 pg/mL and the bFGF level came out at 221 ± 8 pg/mL.
